Read-outs that look alike come from different tables or passages of the source.
What was measured:
[1] = test system: NCI-H1568 cells (high MCL1); experiment: Cell proliferation and viability, CellTiter-Glo, 72 hours; assay type: cell-based; settings: for GI50: geometric mean
Outline: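 Cells grown in RPMI-1640 with 10% FBS (Panc 05.04 with added insulin, 15% FBS total) were exposed to an 11-point half-log dilution, typically 10 μM–100 pM, at 0.1% DMSO for 72 h at 37 °C. ATP content was read by CellTiter-Glo luminescence. Percent inhibition was set against a time-zero plate and DMSO vehicle wells, on a −100% (cidal) to 100% (uninhibited growth) scale.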

SF3b complexes = target: T1, SF3b complexes (Homo sapiens, UniProt O75533+Q7RTV0); experiment: Scintillation proximity assay (SPA) with [3H]-labelled pladienolide probe; assay type: binding; settings: SF3B1 (WT); geometric mean; read-out: SPA-ATS GMean IC50 (nM) SF3B1 (WT)
T1 construct: endogenous in cells; host or cells: Nuclear extracts; A HeLa S3 extract preparation is described for the in vitro splicing assay
Outline: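 SF3b complexes captured from nuclear extracts on anti-SF3B1 antibody SPA beads; test compounds pre-incubated 30 min before 2.5 nM [3H]-pladienolide probe added, then 30 min incubation. Bound probe read by scintillation; values from non-linear regression of concentration–response curves.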

[2] = test system: Ad2 variant pre-mRNAs spliced in HeLa S3 nuclear extracts; experiment: In vitro splicing assay (IVS), RT-qPCR of spliced product; assay type: biochemical; settings: for IC50: geometric mean; for Ratio Ad2.1/2.2: ratio of IVS IC50 Ad2.1 to Ad2.2
Outline: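 Ad2 variant pre-mRNA (2 ng) with FTZΔi control RNA in HeLa S3 nuclear extract (8 μg) was pre-incubated with compound or DMSO for 15 min at 30 °C. Splicing ran 90 min at 30 °C after adding 0.5 mM ATP, creatine phosphate and MgCl2. Spliced product was quantified by TaqMan RT-qPCR, normalized to DMSO, and curve-fitted.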

[3] = 72 h, NCIH1568.1, -100% = cidal, 0% = static, 100% = uninhibited growth
[4] = NCI-H1568, read-out: CTGlo-ATS GMean GI50 (nM) 72 h NCIH1568.1, 72 h, NCIH1568.1
[5] = Ad2.1 pre-mRNA substrate, read-out: qPCR-IVS-ATS GMean IC50 (nM) Ad2.1
[6] = Ad2.2 pre-mRNA substrate, read-out: qPCR-IVS-ATS GMean IC50 (nM) Ad2.2
[7] = NCI-H1568, 72 h, read-out: CTGlo-ATS GMean GI50 (nM) 72 h NCIH1568.1, 72 h, NCIH1568.1
[8] = NCI-H1568, read-out: CTGlo-ATS GMean GI50 (nM) 72 h NCIH1568.1, NCIH1568.1 cells, 72 h
[9] = NCIH1568.1 cells, 72 h, −100% cidal, 0% static, 100% maximal growth
[10] = NCI-H1568, 72 h, read-out: CTGlo-ATS GMean GI50 (nM) 72 h NCIH1568.1, NCIH1568.1 cells, 72 h

C/C(=C\c1cc(F)cc(N2CCN(C(=O)Cn3cccn3)CC2)c1)[C@H]1OC(=O)C[C@H](O)CC[C@H](C)[C@@H](OC(=O)N2CCOCC2)/C=C/[C@@H]1C [Compound 223, [(2S,3S,4E,6R,7S,10R)-2-[(E)-1-[3-fluoro-5-[4-(2-pyrazol-1-ylacetyl)piperazin-1-yl]phenyl]prop-1-en-2-yl]-10-hydroxy-3,7-dimethyl-12-oxo-1-oxacyclododec-4-en-6-yl] morpholine-4-carboxylate]
CTGlo-ATS Mean MinResponse % 72 h NCIH1568.1 [1, 3]: −62.835%
GI50 [1, 4]: 33.1 nM
IC50 (SF3b complexes): 15.9 nM
IC50 [2, 5]: 93.9 nM
IC50 [2, 6]: 6.96 nM
Ratio Ad2.1/2.2 [2]: 13.488

C/C(=C\c1cc(F)cc(N2CCN(C(=O)Cn3cccn3)CC2)c1)[C@H]1OC(=O)C[C@H](O)CC[C@H](C)[C@@H](OC(=O)N2CCN(c3ccncc3)CC2)/C=C/[C@@H]1C [Compound 237, [(2S,3S,4E,6R,7S,10R)-2-[(E)-1-[3-fluoro-5-[4-(2-pyrazol-1-ylacetyl)piperazin-1-yl]phenyl]prop-1-en-2-yl]-10-hydroxy-3,7-dimethyl-12-oxo-1-oxacyclododec-4-en-6-yl] 4-pyridin-4-ylpiperazine-1-carboxylate]
CTGlo-ATS Mean MinResponse % 72 h NCIH1568.1 [1, 3]: −78.619%
GI50 [1, 7]: 12 nM
IC50 (SF3b complexes): 8.37 nM
IC50 [2, 5]: 18.6 nM
IC50 [2, 6]: 9.33 nM
Ratio Ad2.1/2.2 [2]: 1.989

C/C(=C\c1cc(F)cc(N2CCN(C(=O)Cn3cccn3)CC2)c1)[C@H]1OC(=O)C[C@H](O)CC[C@H](C)[C@@H](OC(=O)NCc2ccncn2)/C=C/[C@@H]1C [Compound 222, [(2S,3S,4E,6R,7S,10R)-2-[(E)-1-[3-fluoro-5-[4-(2-pyrazol-1-ylacetyl)piperazin-1-yl]phenyl]prop-1-en-2-yl]-10-hydroxy-3,7-dimethyl-12-oxo-1-oxacyclododec-4-en-6-yl] N-(pyrimidin-4-ylmethyl)carbamate]
CTGlo-ATS Mean MinResponse % 72 h NCIH1568.1 [1, 3]: −58.410%
GI50 [1, 7]: 69.4 nM
IC50 (SF3b complexes): 23.6 nM
IC50 [2, 5]: 116 nM
IC50 [2, 6]: 53.2 nM
Ratio Ad2.1/2.2 [2]: 2.179

C/C(=C\c1cc(F)cc(N2CCN(C(=O)CCO)CC2)c1)[C@H]1OC(=O)C[C@H](O)CC[C@H](C)[C@@H](OC(=O)N2CCN(C)CC2)/C=C/[C@@H]1C [Compound 155]
GI50 [1, 8]: 1.91 nM
CTGlo-ATS Mean MinResponse % 72 h NCIH1568.1 [1, 9]: −83.475%
IC50 (SF3b complexes): 2.21 nM
IC50 [2, 5]: 8.45 nM
IC50 [2, 6]: 5.88 nM

C/C(=C\c1cc(F)cc(N2CCN(C(=O)Cn3cccn3)CC2)c1)[C@H]1OC(=O)C[C@H](O)CC[C@H](C)[C@@H](OC(=O)N(C)CCc2ccc(O)cc2)/C=C/[C@@H]1C [Compound 239, [(2S,3S,4E,6R,7S,10R)-2-[(E)-1-[3-fluoro-5-[4-(2-pyrazol-1-ylacetyl)piperazin-1-yl]phenyl]prop-1-en-2-yl]-10-hydroxy-3,7-dimethyl-12-oxo-1-oxacyclododec-4-en-6-yl] N-[2-(4-hydroxyphenyl)ethyl]-N-methylcarbamate]
CTGlo-ATS Mean MinResponse % 72 h NCIH1568.1 [1, 3]: −77.758%
GI50 [1, 7]: 63.5 nM
IC50 (SF3b complexes): 150 nM
IC50 [2, 5]: 103 nM
IC50 [2, 6]: 48 nM
Ratio Ad2.1/2.2 [2]: 2.151

C/C(=C\c1cc(F)cc(N2CCN(CCCO)CC2)c1)[C@H]1OC(=O)C[C@H](O)CC[C@H](C)[C@@H](OC(=O)N2CCN(C)CC2)/C=C/[C@@H]1C [Compound 136]
GI50 [1, 10]: 7.17 nM
CTGlo-ATS Mean MinResponse % 72 h NCIH1568.1 [1, 9]: −90.722%
IC50 (SF3b complexes): 8.11 nM
IC50 [2, 5]: 8.64 nM
IC50 [2, 6]: 14.5 nM

COc1ccc(Cn2nnc3c(F)cc(/C=C(\C)[C@H]4OC(=O)C[C@H](O)CC[C@H](C)[C@@H](OC(=O)N5CCN(C)CC5)/C=C/[C@@H]4C)cc32)cc1 [Compound 166]
GI50 [1, 8]: 17.6 nM
CTGlo-ATS Mean MinResponse % 72 h NCIH1568.1 [1, 9]: −66.370%
IC50 (SF3b complexes): 23.8 nM
IC50 [2, 5]: 1510 nM
IC50 [2, 6]: 48.3 nM

C/C(=C\c1cc(F)cc(N2CCN(C(=O)Cn3cccn3)CC2)c1)[C@H]1OC(=O)C[C@H](O)CC[C@H](C)[C@@H](OC(=O)N2CCN(Cc3cccc(O)c3)CC2)/C=C/[C@@H]1C [Compound 251, [(2S,3S,4E,6R,7S,10R)-2-[(E)-1-[3-fluoro-5-[4-(2-pyrazol-1-ylacetyl)piperazin-1-yl]phenyl]prop-1-en-2-yl]-10-hydroxy-3,7-dimethyl-12-oxo-1-oxacyclododec-4-en-6-yl] 4-[(3-hydroxyphenyl)methyl]piperazine-1-carboxylate]
CTGlo-ATS Mean MinResponse % 72 h NCIH1568.1 [1, 3]: −87.236%
GI50 [1, 4]: 13.4 nM
IC50 (SF3b complexes): 52.4 nM
IC50 [2, 5]: 49.7 nM
IC50 [2, 6]: 28.1 nM
Ratio Ad2.1/2.2 [2]: 1.765

C/C(=C\c1cc(F)cc(N2CCN(C(=O)C3(C)COC3)CC2)c1)[C@H]1OC(=O)C[C@H](O)CC[C@H](C)[C@@H](OC(=O)N2CCN(C)CC2)/C=C/[C@@H]1C [Compound 154]
GI50 [1, 8]: 1.85 nM
CTGlo-ATS Mean MinResponse % 72 h NCIH1568.1 [1, 9]: −85.459%
IC50 (SF3b complexes): 3.75 nM
IC50 [2, 5]: 20 nM
IC50 [2, 6]: 8.72 nM

C/C(=C\c1cc(F)c2nnn([C@@H](C)CO)c2c1)[C@H]1OC(=O)C[C@H](O)CC[C@H](C)[C@@H](OC(=O)N2CCN(C)CC2)/C=C/[C@@H]1C [Compound 149]
GI50 [1, 8]: 1.66 nM
CTGlo-ATS Mean MinResponse % 72 h NCIH1568.1 [1, 9]: −73.106%
IC50 (SF3b complexes): 1.86 nM
IC50 [2, 5]: 9.13 nM
IC50 [2, 6]: 8.71 nM

C/C(=C\c1cc(F)cc(N2CCN(C(=O)Cn3cccn3)CC2)c1)[C@H]1OC(=O)C[C@H](O)CC[C@H](C)[C@@H](OC(=O)N2CCN(CCO)CC2)/C=C/[C@@H]1C [Compound 234, [(2S,3S,4E,6R,7S,10R)-2-[(E)-1-[3-fluoro-5-[4-(2-pyrazol-1-ylacetyl)piperazin-1-yl]phenyl]prop-1-en-2-yl]-10-hydroxy-3,7-dimethyl-12-oxo-1-oxacyclododec-4-en-6-yl] 4-(2-hydroxyethyl)piperazine-1-carboxylate]
CTGlo-ATS Mean MinResponse % 72 h NCIH1568.1 [1, 3]: −81.384%
GI50 [1, 4]: 5.2 nM
IC50 (SF3b complexes): 3.16 nM
IC50 [2, 5]: 13.1 nM
IC50 [2, 6]: 16.5 nM
Ratio Ad2.1/2.2 [2]: 0.793

C/C(=C\c1cc(F)cc(N(C)C2CCN(C(=O)c3cnco3)CC2)c1)[C@H]1OC(=O)C[C@H](O)CC[C@H](C)[C@@H](OC(=O)N2CCN(C)CC2)/C=C/[C@@H]1C [Compound 188]
GI50 [1, 8]: 2.77 nM
CTGlo-ATS Mean MinResponse % 72 h NCIH1568.1 [1, 9]: −79.922%
IC50 (SF3b complexes): 2.61 nM
IC50 [2, 5]: 7.41 nM
IC50 [2, 6]: 5.63 nM

CCCNC(=O)N1CCC(N(C)c2cc(F)cc(/C=C(\C)[C@H]3OC(=O)C[C@H](O)CC[C@H](C)[C@@H](OC(=O)N4CCN(C)CC4)/C=C/[C@@H]3C)c2)CC1 [Compound 192]
GI50 [1, 10]: 7.49 nM
CTGlo-ATS Mean MinResponse % 72 h NCIH1568.1 [1, 9]: −75.900%
IC50 (SF3b complexes): 3.85 nM
IC50 [2, 5]: 14.1 nM
IC50 [2, 6]: 10.3 nM

CCN(c1cc(F)cc(/C=C(\C)[C@H]2OC(=O)C[C@H](O)CC[C@H](C)[C@@H](OC(=O)N3CCN(C)CC3)/C=C/[C@@H]2C)c1)C1CCN(S(C)(=O)=O)CC1 [Compound 175]
GI50 [1, 10]: 9.49 nM
CTGlo-ATS Mean MinResponse % 72 h NCIH1568.1 [1, 9]: −99.134%
IC50 (SF3b complexes): 5.83 nM
IC50 [2, 5]: 9.5 nM
IC50 [2, 6]: 8.12 nM

C/C(=C\c1cc(F)c2cnn(C3CCC(F)(F)CC3)c2c1)[C@H]1OC(=O)C[C@H](O)CC[C@H](C)[C@@H](OC(=O)N2CCN(C)CC2)/C=C/[C@@H]1C [Compound 195]
GI50 [1, 8]: 6.59 nM
CTGlo-ATS Mean MinResponse % 72 h NCIH1568.1 [1, 9]: −95.559%
IC50 (SF3b complexes): 69.3 nM
IC50 [2, 5]: 91.9 nM
IC50 [2, 6]: 58.3 nM

C/C(=C\c1cc(F)cc(N2CCN(C(=O)Cn3cccn3)CC2)c1)[C@H]1OC(=O)C[C@H](O)CC[C@H](C)[C@@H](OC(=O)NCCN(C)C)/C=C/[C@@H]1C [Compound 224, [(2S,3S,4E,6R,7S,10R)-2-[(E)-1-[3-fluoro-5-[4-(2-pyrazol-1-ylacetyl)piperazin-1-yl]phenyl]prop-1-en-2-yl]-10-hydroxy-3,7-dimethyl-12-oxo-1-oxacyclododec-4-en-6-yl] N-[2-(dimethylamino)ethyl]carbamate]
CTGlo-ATS Mean MinResponse % 72 h NCIH1568.1 [1, 3]: −61.875%
GI50 [1, 7]: 16.4 nM
IC50 (SF3b complexes): 3.14 nM
IC50 [2, 5]: 41.1 nM
IC50 [2, 6]: 5.88 nM
Ratio Ad2.1/2.2 [2]: 6.991

C/C(=C\c1cc(F)cc(N(C)C2CCN(C(=O)NC(C)C)CC2)c1)[C@H]1OC(=O)C[C@H](O)CC[C@H](C)[C@@H](OC(=O)N2CCN(C)CC2)/C=C/[C@@H]1C [Compound 191]
GI50 [1, 8]: 6.33 nM
CTGlo-ATS Mean MinResponse % 72 h NCIH1568.1 [1, 9]: −83.895%
IC50 (SF3b complexes): 3.47 nM
IC50 [2, 5]: 11.6 nM
IC50 [2, 6]: 7.47 nM
